Consider two compounds from patent US20040019070A1, “Pyrrole-condensed morphinoid derivatives” (priority 2000, published 2004).

Assay [1] deals with T1, human delta opioid receptor (Homo sapiens, UniProt P41143).
T1 construct: expressed in transfected cells; membranes prepared
Nature of the assay: radioligand binding assay, [3H]-DADLE, cloned human delta opioid receptor in CHO cells. Here is the method: The activity of the compounds of the present invention as selective delta ligands is determined in radioligand binding assays as described below.
(§1) The activity of the compounds of the present invention as selective delta ligands is determined in radioligand binding assays using cloned human delta, mu and kappa opioid receptors stably expressed in cell lines as described below.
(§2) CHO cells were subjected to stable transfection with cDNA encoding the human delta and mu opioid receptors. Clones were grown in suspension culture in serum free media. Selection was performed by growth in the absence of nucleotides.
(§3) Membranes were prepared as previously described (J. Med. Chem. 1997, 40, 3192 ). The binding of the preferential delta ligand [^3H]-[D-Ala^2,D-Leu^5]-enkephalin (DADLE) was evaluated at its KD concentration (0.7 nM). The binding of the mu ligand [^3H]-DAMGO (Eur. J. Pharmacol., 1989, 166, 213) and of the kappa ligand [^3H]-U69593 (Excerpta Medica, 1990, 211) were carried out at 0.5 nM. Non specific binding was determined in the presence of 10 uM of naloxone. Binding data were expressed as percentage of inhibition and fitted the following equation: f(x)=100·X/(IC50+X) where X is the cold drug concentration value. The IC50 values obtained were used to calculate the inhibitory constants (Ki) accordingly to the Cheng and Prusoff relation (Biochem. Pharmacol., 1973, 22, 3099).

Assay [2] has as its target T2, human mu opioid receptor (Homo sapiens, UniProt P35372).
T2 construct: expressed in transfected cells; membranes prepared
Nature of the assay: radioligand binding assay, [3H]-DAMGO, cloned human mu opioid receptor in CHO cells. The settings on record: ratio of Ki at mu ([3H]-DAMGO 0.5 nM) to Ki at delta. The method, then:
as §1, §2, §3

What is called Ki is a dissociation constant, usually derived from enzyme kinetics or from competition with a known ligand.

T2 sequence (P35372 whole entry): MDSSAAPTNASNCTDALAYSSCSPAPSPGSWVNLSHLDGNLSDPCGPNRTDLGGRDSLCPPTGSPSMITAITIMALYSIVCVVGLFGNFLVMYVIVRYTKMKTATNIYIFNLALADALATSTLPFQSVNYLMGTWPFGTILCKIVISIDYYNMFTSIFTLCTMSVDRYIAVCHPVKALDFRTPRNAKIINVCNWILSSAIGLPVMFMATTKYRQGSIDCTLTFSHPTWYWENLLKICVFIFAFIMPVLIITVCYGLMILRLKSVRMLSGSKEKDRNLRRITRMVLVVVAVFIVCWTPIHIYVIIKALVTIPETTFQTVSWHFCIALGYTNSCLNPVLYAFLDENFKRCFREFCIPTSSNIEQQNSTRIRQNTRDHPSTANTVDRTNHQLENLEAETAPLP
T1 sequence (P41143 whole entry): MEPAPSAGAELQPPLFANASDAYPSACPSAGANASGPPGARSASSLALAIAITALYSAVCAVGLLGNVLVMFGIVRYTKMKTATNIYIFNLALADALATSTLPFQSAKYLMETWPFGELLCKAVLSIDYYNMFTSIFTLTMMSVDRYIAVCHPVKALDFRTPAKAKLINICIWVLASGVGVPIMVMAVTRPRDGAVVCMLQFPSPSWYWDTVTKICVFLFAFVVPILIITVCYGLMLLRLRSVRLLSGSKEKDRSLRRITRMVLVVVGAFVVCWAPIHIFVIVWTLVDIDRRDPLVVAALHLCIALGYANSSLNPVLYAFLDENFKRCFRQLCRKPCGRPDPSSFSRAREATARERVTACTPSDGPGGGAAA

For `COc1ccc2c3c1O[C@H]1c4[nH]c(C(=O)N5C(C)(C)CCCC5(C)C)c(C)c4C[C@H]4[C@@H](C2)N(C)CC[C@]314` [Example 1], affinity in assay [1] was put at a Ki of 0.3 nM. Moreover, in assay [2], the “Ki mu/Ki delta” value was determined as 267.
Take `COc1ccc2c3c1O[C@H]1c4[nH]c(C(=O)N5CCC(C(=O)c6ccccc6)CC5)c(C)c4C[C@H]4[C@@H](C2)N(C)CC[C@]314` [Example 6]: in assay [1], the inhibitory constant (Ki) was determined as 1.4 nM. Besides, the “Ki mu/Ki delta” value in assay [2] was found to be 220.
